According to US4052515A, “Method of treating acne with alcohol” (priority 1976, dated 1977):

How the values were obtained:
[1] = Topical application of compositions to skin affected by acne; type: in vivo; details: 3 to 10 milligrams composition per square centimeter of skin, about 3 weeks
Text: When treating acne it is preferred that a regimen involving multiple applications of the composition over a period of days or weeks be employed. The amount of the composition applied to the affected areas which constitutes an effective amount will vary depending on the particular person and degree of acne. It is preferred that the composition be applied to the affected areas at a rate of 3 milligrams of composition per square centimeter to 10 milligrams composition per square centimeter of treated tissue.
The above compositions show an anti-acne effect when topically applied to skin areas so affected at a rate of between 3 to 10 milligrams composition per square centimeter of skin over a period of about 3 weeks.

[2] = test system: Corynebacterium acne lysate supernatant lypolytic activity; experiment: Lypolytic activity of C. acne lysate supernatant, tributyrin turbidity; type: biochemical; details: for Percent Inhibition C. Acne: tributyrin 0.05% substrate, initial rates of turbidity change; for Effect on inhibiting the hydrolysis of the tributyrin: summary in words for C. acne and comedo homogenate
Procedure: Cells of a pure culture of Corynebacterium acne are collected, lysed in 0.05M phosphate buffer and centrifuged. The resultant supernatant is also used to measure lypolytic activity.
(§1) Tributyrin (0.05%) is dispersed in the phosphate buffered solutions by sonication, the alcohol is added, and then an aliquot of the enzyme solution added. The decrease in turbidity is measured spectrophotometrically. Inhibitory activity is determined by comparing initial rates of change.

[3] = test system: Comedo homogenate lypolytic activity; experiment: Lypolytic activity of comedo homogenate supernatant, tributyrin turbidity; type: biochemical; details: tributyrin 0.05% substrate
Procedure: Comedones are collected from the face of subjects with varying degrees of acne and homogenized in 0.05M phosphate buffer, pH 8.1. The mixture is centrifuged and the supernatant is used to measure lypolytic activity.
as §1

[4] = test system: Pityrosporum ovale whole cell lipase activity; experiment: Whole cell lipase activity, pH stat; type: cell-based; details: for Percent Inhibition Tributyrin / Percent Inhibition Triolein: P. Ovale, alcohol 0.5mMoles; for Percent Inhibition Tributyrin: tributyrin substrate; for Percent Inhibition Triolein: triolein substrate; for Inhibitory activity against different types and strains of skin microorganisms and substrates: summary in words over all strains and both substrates
Procedure: Cells from three strains of C.Acnes and one strain of Pityrosporum ovale are collected and whole cells used to measure lipase activity. Tributyrin and triolein are used as substrates by dispersing them in a histidine-buffered system by sonication and measuring the acid changes with a pH stat. Alcohols are added to the substrate at a level of 0.5mMoles.

[5] = test system: P. Ovale cells and artificial sebum lipid; experiment: Irritation by artificial sebum plus P. Ovale cells on guinea pig back; type: in vivo, guinea pigs; details: for Average Irritation Grade: graded after 5 days, scale 0-4, 4 most severe, 0% control 2.0; for Reduction of irritation produced by P. Ovale cells and artificial sebum lipid: summary in words
Procedure: (§2) A lipid mixture resembling human sebum in composition, but lacking free fatty acids, is applied to the back of guinea pigs along with an inoculum of P. Ovale cells. Alcohol is added to the artificial sebum lipid at concentrations of 1 and 5%. Irritation is graded after 5 days on a scale of 0-4, 4 being most severe.

[6] = test system: P. Ovale cells and artificial sebum lipid; experiment: Parallel experiment: irritation and free fatty acid in artificial sebum after 5 days; type: in vivo, guinea pigs; details: for Irritation Grade: after 5 days, control 3; for % Free Fatty Acids: lipids extracted after 5 days, control 12.5
Procedure: as §2
In a parallel experiment, 1-octanol is mixed in the artificial sebum in varying ratios. After 5 days the lipids are extracted and the quantity of free fatty acid determined.

[7] = Stoler disclosure; cited from earlier work
[8] = 1.0% alcohol in artificial sebum
[9] = 5.0% alcohol in artificial sebum

SMILES: CCC=CCCO [3-hexen-1-ol]
- Anti-acne effect [1]: substantially the same results

SMILES: CCCCCCCCO [1-octanol]
- Percent Inhibition C. Acne ([2]; 0.03% alcohol): 63%
- Percent Inhibition C. Acne ([2]; 0.1% alcohol): 100%
- Effect on inhibiting the hydrolysis of the tributyrin [2]: positive effect
- Percent Inhibition Comedo Homogenate ([3]; 0.03% alcohol): 20%
- Percent Inhibition Comedo Homogenate ([3]; 0.1% alcohol): 27%
- Percent Inhibition Tributyrin [4]: 60%
- Percent Inhibition Triolein [4]: 12%
- Inhibitory activity against different types and strains of skin microorganisms and substrates [4]: broad inhibitory activity
- Average Irritation Grade [5, 8]: 0
- Average Irritation Grade [5, 9]: 0.6
- Reduction of irritation produced by P. Ovale cells and artificial sebum lipid [5]: able to reduce the irritation
- Irritation Grade ([6]; alcohol concentration 0.5): 2
- % Free Fatty Acids ([6]; alcohol concentration 0.5): 2.5%
- Irritation Grade ([6]; alcohol concentration 1.0): 2
- % Free Fatty Acids ([6]; alcohol concentration 1.0): 1.7%
- Irritation Grade ([6]; alcohol concentration 5.0): 0.5
- % Free Fatty Acids ([6]; alcohol concentration 5.0): 2.5%

SMILES: CCCCCCCCCCO [1-decanol]
- Percent Inhibition Tributyrin [4]: 63%
- Percent Inhibition Triolein [4]: 24%
- Inhibitory activity against different types and strains of skin microorganisms and substrates [4]: broad inhibitory activity
- Average Irritation Grade [5, 8]: 1.3
- Average Irritation Grade [5, 9]: 0.6
- Reduction of irritation produced by P. Ovale cells and artificial sebum lipid [5]: able to reduce the irritation
- Anti-acne effect [1]: substantially the same results

SMILES: CCCCCCCCCCCCO [1-dodecanol]
- Average Irritation Grade [5, 8]: 1.3
- Average Irritation Grade [5, 9]: 1.0
- Reduction of irritation produced by P. Ovale cells and artificial sebum lipid [5]: able to reduce the irritation
- Anti-acne effect [1]: substantially the same results

SMILES: CCCCCCC=CCCO [3-decen-1-ol]
- Anti-acne effect [1]: substantially the same results

SMILES: CCCCO [1-butanol, reference compound]
- Percent Inhibition C. Acne ([2]; 0.1% alcohol): 0%
- Effect on inhibiting the hydrolysis of the tributyrin [2]: no measurable effect
- Percent Inhibition Comedo Homogenate ([3]; 0.1% alcohol): 0%

SMILES: CCCO [Propanol]
- Anti-acne effect [1]: substantially the same results

SMILES: OCc1ccccc1 [benzyl alcohol]
- Anti-acne agent [7]: an effective anti-acne agent
- Inhibition of the formation of free fatty acids [7]: effective in inhibiting the formation of free fatty acids

SMILES: CCCCCCC(C)O (centres unmarked) [2-octanol]
- Anti-acne effect [1]: substantially the same results

SMILES: CC(C)O [isopropanol]
- Anti-acne effect [1]: substantially the same results
